The values below come from patent publication US20070065472A1, “Benzyl-1,3-thiazolidine-2,4-dione compounds for stimulating or inducing the growth and/or for reducing the loss of keratin fibers” (L'OREAL, priority 2005, published 2007).

Compound `O=C1NC(=O)C(Cc2ccccc2Oc2ccccc2)S1` (stereo not shown) [Example 1, 5-(2-phenoxybenzyl)-1,3-thiazolidine-2,4-dione] had a melting point of 84 to 85 °C.

By melting point is commonly meant the temperature, or range, at which the solid turns liquid.
